{"source": "paper PMC6675791", "about": "“Clozapine-dependent inhibition of EGF/neuregulin receptor (ErbB) kinases” (Translational Psychiatry, 2019)", "assay_in_all_cases": "in vitro kinase assay (ELISA, Tyr-Glu heteropolymer substrate, […] ATP, […] Triton X-100)", "format_in_all_cases": "biochemical", "key": {"[1]": {"biological_target": "T1, ErbB2 kinase (Homo sapiens, UniProt P04626)", "T1 construct": "recombinant truncated ErbB2 kinase (intracellular domain, lacking the extracellular domain)", "T1 sequence (P04626 676-1255 limits assumed)": "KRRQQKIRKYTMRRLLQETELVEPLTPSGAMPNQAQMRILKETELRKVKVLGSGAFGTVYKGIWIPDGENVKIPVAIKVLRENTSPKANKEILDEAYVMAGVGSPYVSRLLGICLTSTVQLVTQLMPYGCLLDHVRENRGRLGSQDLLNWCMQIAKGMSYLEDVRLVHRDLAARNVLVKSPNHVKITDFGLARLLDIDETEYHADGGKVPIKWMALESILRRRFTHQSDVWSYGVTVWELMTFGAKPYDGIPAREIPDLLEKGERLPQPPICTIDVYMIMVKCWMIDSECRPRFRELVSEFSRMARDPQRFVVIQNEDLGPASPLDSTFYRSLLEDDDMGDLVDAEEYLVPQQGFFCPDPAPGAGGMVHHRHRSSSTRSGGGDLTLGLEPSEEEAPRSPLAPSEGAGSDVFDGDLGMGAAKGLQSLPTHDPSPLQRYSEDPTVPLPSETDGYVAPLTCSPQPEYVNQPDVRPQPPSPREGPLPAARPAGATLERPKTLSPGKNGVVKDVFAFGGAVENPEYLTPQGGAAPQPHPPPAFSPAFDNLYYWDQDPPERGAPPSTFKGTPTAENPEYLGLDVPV"}, "[2]": {"biological_target": "T2, ErbB4 kinase (Homo sapiens, UniProt Q15303)", "T2 construct": "recombinant truncated ErbB4 kinase (intracellular domain, lacking the extracellular domain)", "T2 sequence (Q15303 676-1308 limits assumed)": "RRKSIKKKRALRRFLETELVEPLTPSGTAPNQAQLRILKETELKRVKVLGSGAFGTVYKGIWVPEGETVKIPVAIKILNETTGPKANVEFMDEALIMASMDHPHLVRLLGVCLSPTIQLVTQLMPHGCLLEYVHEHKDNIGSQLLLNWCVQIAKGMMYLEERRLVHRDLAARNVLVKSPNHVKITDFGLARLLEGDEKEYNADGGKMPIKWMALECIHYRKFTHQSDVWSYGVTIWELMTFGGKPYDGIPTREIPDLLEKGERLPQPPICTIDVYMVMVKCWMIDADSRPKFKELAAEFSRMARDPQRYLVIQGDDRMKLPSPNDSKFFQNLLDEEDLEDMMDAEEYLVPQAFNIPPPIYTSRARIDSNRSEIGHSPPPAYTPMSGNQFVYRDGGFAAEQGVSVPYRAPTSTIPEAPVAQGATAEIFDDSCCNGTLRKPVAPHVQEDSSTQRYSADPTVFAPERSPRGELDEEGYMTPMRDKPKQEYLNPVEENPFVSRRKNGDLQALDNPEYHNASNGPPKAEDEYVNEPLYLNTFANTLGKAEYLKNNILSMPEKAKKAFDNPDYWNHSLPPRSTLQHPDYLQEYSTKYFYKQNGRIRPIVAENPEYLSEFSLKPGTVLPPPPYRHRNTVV"}, "[3]": {"biological_target": "T3, ErbB1 kinase (Homo sapiens, UniProt P00533)", "T3 construct": "gene EGFR; recombinant truncated ErbB1 kinase (intracellular domain, lacking the extracellular domain)", "T3 sequence (P00533 669-1210 limits assumed)": "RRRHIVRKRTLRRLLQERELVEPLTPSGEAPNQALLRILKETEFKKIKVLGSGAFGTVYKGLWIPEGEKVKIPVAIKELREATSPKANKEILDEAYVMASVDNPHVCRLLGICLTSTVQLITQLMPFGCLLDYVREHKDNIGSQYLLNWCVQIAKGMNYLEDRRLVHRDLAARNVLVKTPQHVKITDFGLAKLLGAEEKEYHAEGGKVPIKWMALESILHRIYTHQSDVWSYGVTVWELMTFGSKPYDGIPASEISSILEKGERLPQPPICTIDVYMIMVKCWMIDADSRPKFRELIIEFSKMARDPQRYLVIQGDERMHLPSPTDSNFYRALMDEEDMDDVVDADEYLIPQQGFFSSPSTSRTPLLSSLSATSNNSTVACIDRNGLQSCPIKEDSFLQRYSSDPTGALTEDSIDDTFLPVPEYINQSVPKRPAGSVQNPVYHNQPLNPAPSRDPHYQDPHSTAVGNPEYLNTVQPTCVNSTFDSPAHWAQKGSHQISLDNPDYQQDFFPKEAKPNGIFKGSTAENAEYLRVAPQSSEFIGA"}}}
{"smiles": "CN1CCN(C2=Nc3cc(Cl)ccc3Nc3ccccc32)CC1", "note": "[CLZ, clozapine]", "values": [{"measurement": "in vitro kinase assay (ELISA, Tyr-Glu heteropolymer substrate, 4 mM ATP, 0.2% Tr)", "setting": "[1]", "result": 3, "unit": "µM"}, {"measurement": "in vitro kinase assay (ELISA, Tyr-Glu heteropolymer substrate, 4 mM ATP, 0.2% Tr)", "setting": "[2]", "result": 30, "unit": "µM"}, {"measurement": "in vitro kinase assay (ELISA, Tyr-Glu heteropolymer substrate, 4 mM ATP, 0.2% Tr)", "setting": "[3]", "result": 30, "unit": "µM"}]}
